Measured values published in article PMC13403234, “Engineering Cathepsin S Selective Chemical Probes and Antibody−Drug Conjugates through Substrate Profiling with Unnatural Amino Acids” (Journal of Medicinal Chemistry, 2026).

Assays:
Cathepsin S [1] = molecular target: T1, Cathepsin S (Homo sapiens, UniProt P25774); assay: Second-order rate constants of inhibition (kobs/[I]), cathepsin S; format: biochemical; details: for kobs/[I] Cath S / Selectivity S to B / Selectivity S to L / Selectivity S to V: Figure 4D; for kobs/[I] Cath S: Cy5- and BODIPY-labeled probes; for Selectivity S to B / Selectivity S to L / Selectivity S to V: calculated from kobs/[I]; for Selectivity S to B: cathepsin S over cathepsin B; for Selectivity S to L: cathepsin S over cathepsin L; for Selectivity S to V: cathepsin S over cathepsin V
T1 construct: made in house
T1 sequence (P25774 115-331): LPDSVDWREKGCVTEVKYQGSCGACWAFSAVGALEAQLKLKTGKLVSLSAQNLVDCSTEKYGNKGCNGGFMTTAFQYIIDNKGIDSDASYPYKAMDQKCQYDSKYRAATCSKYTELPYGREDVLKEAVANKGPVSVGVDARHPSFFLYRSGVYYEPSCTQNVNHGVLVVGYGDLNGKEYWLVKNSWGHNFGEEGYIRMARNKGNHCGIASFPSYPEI
Experimental: (§1) All kinetic studies were performed using an fMax fluorescence plate reader (Molecular Devices) in kinetic mode with 96- or 384-well plates. ACC fluorescence was monitored at excitation and emission wavelengths of 355 and 460 nm, respectively. Recombinant human cysteine cathepsins L, V, B, K, and S were expressed and purified as previously described. Prior to use, all cysteine cathepsins were titrated with E64 to normalize enzymatic activity. Assays for cathepsins were conducted in 100 mM sodium acetate buffer containing 10 mM NaCl and 10 mM DTT (pH 5.5). Breast cancer cell lysates (BT-474, MCF-7, MDA-MB-231) were prepared by culturing cells to confluence in the appropriate media, replacing media with PBS, and harvesting the cells using a cell scraper (without trypsin). The cells were pelleted by centrifugation (400 × g, 5 min), resuspended in PBS, and centrifuged again under the same conditions. After removal of the supernatant, the pellet was resuspended in cathepsin assay buffer (excluding DTT) and sonicated. Lysates were then clarified by centrifugation (12,000 × g, 5 min), and the supernatants were collected and stored at −80 °C until use. All enzymatic assays, including HyCoSuL library screening and kinetic analyses of synthetic substrates, inhibitors, probes and prodrugs, were conducted at 37 °C and repeated at least three times. Mean values are reported. Kinetic data were analyzed using GraphPad Prism software (version 10.4.1).
(§2) The second-order rate constants of inhibition (k obs/[I]) were determined for human recombinant cathepsins S, B, L, and V using their respective assay buffers. All measurements were performed under pseudo-first-order kinetic conditions, as previously described. Inhibitors or ABPs were serially diluted in assay buffer and transferred to a 96-well plate. Each well was supplemented with the fluorogenic substrate Cbz-Phe-Arg-AMC at a final concentration of 25 μM and preincubated for 15 min. In parallel, enzymes were preactivated in assay buffer for 15 min at room temperature. Following preincubation, the activated enzymes were added to the wells, and fluorescence was monitored immediately for 30 min. The k obs/[I] values (M^-1S^-1) were calculated from the progress curves and averaged from at least three independent experiments. Final inhibitor (or ABP) concentrations were maintained at a minimum of 5-fold excess relative to enzyme concentrations to ensure pseudo-first-order conditions. Results were analyzed in GraphPad Prism and are reported as mean ± standard deviation.

Cathepsin L = molecular target: T2, Cathepsin L (Homo sapiens, UniProt P07711); assay: Second-order rate constants of inhibition (kobs/[I]), cathepsin L; format: biochemical; details: Figure 4D; Cy5- and BODIPY-labeled probes
T2 construct: made in house
T2 sequence (P07711 114-333): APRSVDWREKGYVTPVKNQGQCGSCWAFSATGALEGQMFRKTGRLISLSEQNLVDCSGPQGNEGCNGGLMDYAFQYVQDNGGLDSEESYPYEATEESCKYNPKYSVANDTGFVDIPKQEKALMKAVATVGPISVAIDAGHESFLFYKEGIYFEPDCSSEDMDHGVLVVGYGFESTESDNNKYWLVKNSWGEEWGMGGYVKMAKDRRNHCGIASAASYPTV
Experimental: as §1, §2

Cathepsin V = molecular target: T3, Cathepsin V (Homo sapiens, UniProt O60911); assay: Second-order rate constants of inhibition (kobs/[I]), cathepsin V; format: biochemical; details: Figure 4D; Cy5- and BODIPY-labeled probes
T3 construct: made in house
T3 sequence (O60911 114-334): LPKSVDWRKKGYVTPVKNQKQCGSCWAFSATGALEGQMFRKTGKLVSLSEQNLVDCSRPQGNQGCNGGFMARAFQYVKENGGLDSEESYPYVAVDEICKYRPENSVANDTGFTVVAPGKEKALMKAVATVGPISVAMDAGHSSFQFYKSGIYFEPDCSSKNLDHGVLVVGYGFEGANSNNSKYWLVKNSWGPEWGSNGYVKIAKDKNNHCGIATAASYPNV
Experimental: as §1, §2

[2] = molecular target: T4, active cathepsin S in MDA-MB-231 live cells (Homo sapiens, UniProt P25774); assay: Labeling of active cathepsin S in MDA-MB-231 live cells with Cy5 probes; format: cell-based; details: probe 1 μM, 0,5 to 24 h
T4 construct: endogenous in cells; host or cells: MDA-MB-231
T4 sequence (P25774 115-331): as the sequence (P25774 115-331) above
Experimental: (§3) 50,000 of MDA-MB-231 cells were seeded into 12-well plate and allowed to attach overnight. The next day, OG-233 and OG-234 probes (1 μM final concentration) were added to the cells and incubated for various times (from 0,5 h up to 24 h). Control cells were preincubated with cathepsin S inhibitors (JN1, JN4, JN7) at 25 μM for 2 h, and then incubated with OG-233 or OG-234 probes for 24 h. Next, cells were harvested and prepared for SDS-PAGE analysis as described in the above section. Electrophoresis was run for 25 min (4−12% Bis-Tris Plus 10-well gel, 200 V). Next, proteins were transferred onto the membrane (0.2 μm nitrocellulose membrane, 10 V, 60 min) and Ponceau S was used to verify equal loading and transfer. Membranes were then blocked with 5% BSA in TBS-T buffer for 1 h at RT. Membranes were next incubated anticathepsin S antibody (1:1,000, overnight, 4 °C), and the next day with a secondary antibody (IRDye 800CW, donkey anti-Goat) for 30 min at RT, and scanned at 680 and 800 nm using the Sapphire biomolecular imager (Azure Biosystems) to detect the Cy5 probes and cathepsin S. All images were analyzed with Image Studio software.

Cathepsin B [3] = molecular target: T5, Cathepsin B (Homo sapiens, UniProt P07858); assay: Second-order rate constants of inhibition (kobs/[I]), cathepsin B; format: biochemical; set-up: made in house; details: Figure 4D; Cy5- and BODIPY-labeled probes
Experimental: as §1, §2

Cathepsin B [4] = molecular target: T5, Cathepsin B; assay: Labeling of cathepsin B in MDA-MB-231 live cells with Cy5 probes; format: cell-based; set-up: endogenous in cells; host or cells: MDA-MB-231; details: cellular environments; probe labeling
Experimental: as §3

Cathepsin S [5] = molecular target: T1, Cathepsin S; assay: SDS-PAGE profiling of cathepsin labeling by OG-233 ABP; format: biochemical; details: cathepsins 10 nM; probe 10, 100, 500 nM; 30 min
Experimental: Subsequently, each enzyme preparation was incubated with OG-233 at final probe concentrations of 10 nM, 100 nM, and 500 nM for 30 min in a total reaction volume of 200 μL. After incubation, 100 μL of 3× SDS loading buffer containing DTT was added to each sample. The mixtures were boiled for 5 min, and 20 μL of each sample was loaded onto 4−12% Bis-Tris Plus gels (15-well format). Electrophoresis was performed at 200 V for 30 min alongside 2 μL of PageRuler Prestained Protein Ladder. Following separation, the gels were scanned directly at 700 nm (Cy5 fluorescence channel, excitation 685 nm) using a Sapphire biomolecular imager (Azure Biosystems). Band intensities corresponding to labeled cathepsins were quantified using Image Studio software.

Row | Substance | kobs/[I] Cath S (Cathepsin S [1]) | Selectivity S to B (Cathepsin S [1]) | Selectivity S to L (Cathepsin S [1]) | Selectivity S to V (Cathepsin S [1]) | kobs/[I] Cath L (Cathepsin L) | kobs/[I] Cath V (Cathepsin V) | detection of active cathepsin S in living cells [2] | kobs/[I] Cath B (Cathepsin B [3]) | off-target labeling of cathepsin B in cells (Cathepsin B [4]) | higher potency than the unlabeled parent inhibitor (Cathepsin S [1]; cathepsin S kobs/[I], probe vs parent inhibitor) | selectivity for cathepsin S over cathepsin L (Cathepsin S [1]; kobs/[I] based) | selectivity for cathepsin S over cathepsin V (Cathepsin S [1]; kobs/[I] based) | labeling of recombinant cathepsins (fluorescent gel scanning) (Cathepsin S [5])
1 | Cy5-PEG(4)-Met(O2)-Cit-NptGly-Glu(Me)-AOMK [OG-234] | 253,000 M^-1s^-1 | 23 | 46 | 32 | 5,530 M^-1s^-1 | 7,900 M^-1s^-1 | able to detect active cathepsin S as soon as upon 3 h incubation | 11,200 M^-1s^-1 | minor off-target labeling of cathepsin B |  |  |  | 
2 | Cy5-PEG(4)-Phe(F5)-Cit-Lys(2ClZ)-Glu(Me)-AOMK [OG-233] | 1,537,000 M^-1s^-1 | 180 | 2,700 | 3,340 | 570 M⁻¹ s⁻¹ | 460 M⁻¹ s⁻¹ | able to detect active cathepsin S as soon as upon 3 h incubation | 8,520 M^-1s^-1 | minor off-target labeling of cathepsin B | over 2 fold | > 2000 fold | > 500 fold | labeled recombinant cathepsin S over other cathepsins
